The results in this text go back to patent US20240109930A1, “TRIAZOLYL-METHYL SUBSTITUTED ALPHA-D-GALACTOPYRANOSIDE DERIVATIVES” (Idorsia Pharmaceuticals Ltd, priority 2021, published 2024).

Assay [1] deals with human Gal-1 (hGal-1) (Homo sapiens, UniProt P09382, C131S/C17S/C43S/C61S/C89S). The assay can be described thus: Competitive binding assay: biotinylated hGal-1 binding to microplate-adsorbed asialofetuin (ASF). The settings on record: IC50 values from several measurements given as geomean. The gist of the method: (§1)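 Biotinylated hGal-3 or hGal-1 (preferably cysteine-free Cys→Ser mutant), 300–1000 ng/mL, competes with compound for ASF-coated wells for 3 h at 4 °C. Bound lectin detected with streptavidin-peroxidase (80 ng/mL, 1 h, 4 °C) and ABTS by absorbance; IC50 reported as geomean of several runs.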

The target of assay [2] is human Gal-3 (hGal-3) (Homo sapiens (Human), UniProt P17931). The experiment in a line: Competitive binding assay: biotinylated hGal-3 binding to microplate-adsorbed asialofetuin (ASF). The following applies: IC50 values from several measurements given as geomean. The gist of the method:
as §1

As a reminder, the IC50 is the midpoint of a concentration-inhibition curve. High values mean a need for much substance, low ones inhibition by little substance.

Chain of human Gal-3 (hGal-3) (P17931 whole entry): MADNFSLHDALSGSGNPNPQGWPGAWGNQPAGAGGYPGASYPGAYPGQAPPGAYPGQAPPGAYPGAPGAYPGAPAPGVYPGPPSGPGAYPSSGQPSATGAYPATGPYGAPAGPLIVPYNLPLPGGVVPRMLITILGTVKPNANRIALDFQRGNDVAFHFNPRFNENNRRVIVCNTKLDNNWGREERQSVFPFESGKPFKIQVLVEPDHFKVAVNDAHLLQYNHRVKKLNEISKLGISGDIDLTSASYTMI

In the case of `COCC1(n2cc(C[C@H]3O[C@H](CO)[C@H](O)[C@H](n4cc(-c5ccc(F)c(F)c5F)nn4)[C@H]3OC)nn2)CC1` [Ex 3.1.7., (2R,3R,4S,5R,6R)-2-(Hydroxymethyl)-5-methoxy-6-((1-(1-(methoxymethyl)cyclopropyl)-1H-1,2,3-triazol-4-yl)methyl)-4-(4-(2,3,4-trifluorophenyl)-1H-1,2,3-triazol-1-yl)tetrahydro-2H-pyran-3-ol], the IC50 in assay [1] stood at 1200 nM; in assay [2], 120 nM.

For the compound `CO[C@@H]1[C@@H](n2cc(-c3ccc(F)c(F)c3F)nn2)[C@@H](O)[C@@H](CO)O[C@@H]1Cc1cn(C2(CO)CCC2)nn1` [Ex 3.1.11.], the results for the half-inhibitory concentration (IC50) in assay [1] and in assay [2] were 890 nM and 40 nM, respectively.

With `CO[C@@H]1[C@@H](n2cc(-c3ccc(F)c(F)c3F)nn2)[C@@H](O)[C@@H](CO)O[C@@H]1Cc1cn(C23CC(C2)C3)nn1` [Ex 3.1.12.], the IC50 worked out at 950 nM in assay [1] and 60 nM in assay [2].

Take `CO[C@@H]1[C@@H](n2cc(-c3ccc(F)c(F)c3F)nn2)[C@@H](O)[C@@H](CO)O[C@@H]1Cc1cn(C2(C)CCC2)nn1` [Ex 3.1.13.]: the IC50 in assay [1] worked out at 290 nM; in assay [2], 30 nM.

As for `CO[C@@H]1[C@@H](n2cc(-c3ccc(F)c(F)c3F)nn2)[C@@H](O)[C@@H](CO)O[C@@H]1Cc1cn(C23CC(C)(C2)C3)nn1` [Ex 3.1.14.], the figures for the IC50 in assay [1] and in assay [2] were 700 nM and 60 nM, respectively.

As to `CO[C@@H]1[C@@H](n2cc(-c3ccc(F)c(F)c3F)nn2)[C@@H](O)[C@@H](CO)O[C@@H]1Cc1cn(C2(C)CC(F)(F)C2)nn1` [Ex 3.1.15.], the figures for the IC50 in assay [1] and in assay [2] were 460 nM and 50 nM, respectively.

For the compound `CO[C@@H]1[C@@H](n2cc(-c3ccc(F)c(F)c3F)nn2)[C@@H](O)[C@@H](CO)O[C@@H]1Cc1cn(C2CC3(COC3)C2)nn1` [Ex 3.1.16.], the 50% inhibitory concentration (IC50) in assay [1] is 1110 nM; in assay [2], 120 nM.

On to `CO[C@@H]1[C@@H](n2cc(-c3ccc(F)c(F)c3F)nn2)[C@@H](O)[C@@H](CO)O[C@@H]1Cc1cn(C2(CO)CC(F)(F)C2)nn1` [Ex 3.1.18.], for which the IC50 in assay [1] is 1390 nM; in assay [2], 90 nM.

As for `CO[C@@H]1[C@@H](n2cc(-c3ccc(F)c(F)c3F)nn2)[C@@H](O)[C@@H](CO)O[C@@H]1Cc1cn([C@]2(C)C[C@H](O)C2)nn1` [Ex 3.1.19.], the IC50 came to 260 nM in assay [1] and 60 nM in assay [2].

Consider `COCC1(n2cc(C[C@H]3O[C@H](CO)[C@H](O)[C@H](n4cc(-c5ccc(F)c(F)c5F)nn4)[C@H]3OC)nn2)COC1` [Ex 3.1.21.], for which the IC50 in assay [1] turned out to be 770 nM; in assay [2] it was 60 nM.

`CO[C@@H]1[C@@H](n2cc(-c3ccc(F)c(F)c3F)nn2)[C@@H](O)[C@@H](CO)O[C@@H]1Cc1cn(C2(CCO)COC2)nn1` [Ex 3.1.22.]: the half-maximal inhibitory concentration (IC50) in assay [1] worked out at 420 nM; in assay [2], 60 nM.

With `CO[C@@H]1[C@@H](n2cc(-c3ccc(F)c(F)c3F)nn2)[C@@H](O)[C@@H](CO)O[C@@H]1Cc1cn(C2(C)CC2)nn1` [Ex 3.1.23.], the values for the IC50 in assay [1] and in assay [2] were 390 nM and 50 nM, respectively.

Turning to `CO[C@@H]1[C@@H](n2cc(-c3ccc(F)c(F)c3F)nn2)[C@@H](O)[C@@H](CO)O[C@@H]1Cc1cn(C23CC(C(F)(F)F)(C2)C3)nn1` [Ex 3.1.24.], the figures for the IC50 in assay [1] and in assay [2] were 2080 nM and 90 nM, respectively.

On to `CO[C@@H]1[C@@H](n2cc(-c3ccc(F)c(F)c3F)nn2)[C@@H](O)[C@@H](CO)O[C@@H]1Cc1cn(C23CC(F)(C2)C3)nn1` [Ex 3.1.25.], for which the results for the half-inhibitory concentration (IC50) in assay [1] and in assay [2] were 1550 nM and 40 nM, respectively.

`CO[C@@H]1[C@@H](n2cc(-c3ccc(F)c(F)c3F)nn2)[C@@H](O)[C@@H](CO)O[C@@H]1Cc1cn(C2CC3(CC3)C2)nn1` [Ex 3.1.26.]: the IC50 in assay [1] was determined as 760 nM; in assay [2], 70 nM.

For the compound `CO[C@@H]1[C@@H](n2cc(-c3ccc(F)c(F)c3F)nn2)[C@@H](O)[C@@H](CO)O[C@@H]1Cc1cn([C@]2(C)C[C@@H](O)C2)nn1` [Ex 3.1.27.], the values for the half-maximal inhibitory concentration (IC50) in assay [1] and in assay [2] were 140 nM and 30 nM, respectively.

As for `CO[C@@H]1[C@@H](n2cc(-c3ccc(F)c(F)c3F)nn2)[C@@H](O)[C@@H](CO)O[C@@H]1Cc1cn(C(C)(C)C(F)F)nn1` [Ex 3.1.28., (2R,3R,4S,5R,6R)-6-((1-(1,1-difluoro-2-methylpropan-2-yl)-1H-1,2,3-triazol-4-yl)methyl)-2-(hydroxymethyl)-5-methoxy-4-(4-(2,3,4-trifluorophenyl)-1H-1,2,3-triazol-1-yl)tetrahydro-2H-pyran-3-ol], the IC50 in assay [1] turned out to be 290 nM; in assay [2], 30 nM.

`CO[C@@H]1[C@@H](n2cc(-c3ccc(F)c(F)c3F)nn2)[C@@H](O)[C@@H](CO)O[C@@H]1Cc1cn(C23CC(OC)(C2)C3)nn1` [Ex 3.1.29.]: the IC50 in assay [1] turned out to be 760 nM; in assay [2] it was 30 nM.

For `CO[C@@H]1[C@@H](n2cc(-c3ccc(F)c(F)c3F)nn2)[C@@H](O)[C@@H](CO)O[C@@H]1Cc1cn(C2(CF)CCC2)nn1` [Ex 3.1.40., (2R,3R,4S,5R,6R)-6-((1-(1-(fluoromethyl)cyclobutyl)-1H-1,2,3-triazol-4-yl)methyl)-2-(hydroxymethyl)-5-methoxy-4-(4-(2,3,4-trifluorophenyl)-1H-1,2,3-triazol-1-yl)tetrahydro-2H-pyran-3-ol], the figures for the IC50 in assay [1] and in assay [2] were 260 nM and 70 nM, respectively.

Turning to `CO[C@@H]1[C@@H](n2cc(-c3ccc(F)c(F)c3F)nn2)[C@@H](O)[C@@H](CO)O[C@@H]1Cc1cn(C2(C(F)F)CCC2)nn1` [Ex 3.1.43., (2R,3R,4S,5R,6R)-6-((1-(1-(difluoromethyl)cyclobutyl)-1H-1,2,3-triazol-4-yl)methyl)-2-(hydroxymethyl)-5-methoxy-4-(4-(2,3,4-trifluorophenyl)-1H-1,2,3-triazol-1-yl)tetrahydro-2H-pyran-3-ol], the IC50 in assay [1] stood at 210 nM; in assay [2] it was 30 nM.

With `CO[C@@H]1[C@@H](n2cc(-c3ccc(F)c(F)c3F)nn2)[C@@H](O)[C@@H](CO)O[C@@H]1Cc1cn(C2(CF)CC2)nn1` [Ex 3.1.46., (2R,3R,4S,5R,6R)-6-((1-(1-(fluoromethyl)cyclopropyl)-1H-1,2,3-triazol-4-yl)methyl)-2-(hydroxymethyl)-5-methoxy-4-(4-(2,3,4-trifluorophenyl)-1H-1,2,3-triazol-1-yl)tetrahydro-2H-pyran-3-ol], the IC50 in assay [1] was 400 nM; in assay [2], 70 nM.

Regarding `CO[C@@H]1[C@@H](n2cc(-c3ccc(F)c(F)c3F)nn2)[C@@H](O)[C@@H](CO)O[C@@H]1Cc1cn(C2(C(F)F)CC2)nn1` [Ex 3.1.51.], the values for the half-maximal inhibitory concentration (IC50) in assay [1] and in assay [2] were 240 nM and 40 nM, respectively.

On to `CO[C@@H]1[C@@H](n2cc(-c3ccc(F)c(F)c3F)nn2)[C@@H](O)[C@@H](CO)O[C@@H]1Cc1cn(C2(CF)COC2)nn1` [Ex 3.1.52.], for which the IC50 in assay [1] was found to be 240 nM; in assay [2] it was 30 nM.

Take `CO[C@@H]1[C@@H](n2cc(-c3ccc(F)c(F)c3F)nn2)[C@@H](O)[C@@H](CO)O[C@@H]1Cc1cn(C2(C(F)F)COC2)nn1` [Ex 3.1.53.]: the IC50 in assay [1] was found to be 130 nM; in assay [2] it was 20 nM.

For the compound `CO[C@@H]1[C@@H](n2cc(-c3ccc(F)c(F)c3F)nn2)[C@@H](O)[C@@H](CO)O[C@@H]1Cc1cn(C2(C(F)(F)F)CC2)nn1` [Ex 3.1.54.], the figures for the IC50 in assay [1] and in assay [2] were 280 nM and 50 nM, respectively.

As to `CO[C@@H]1[C@@H](n2cc(-c3ccc(F)c(F)c3F)nn2)[C@@H](O)[C@@H](CO)O[C@@H]1Cc1cn(C2(C(F)(F)F)CCC2)nn1` [Ex 3.1.55., (2R,3R,4S,5R,6R)-2-(hydroxymethyl)-5-methoxy-6-((1-(1-(trifluoromethyl)cyclobutyl)-1H-1,2,3-triazol-4-yl)methyl)-4-(4-(2,3,4-trifluorophenyl)-1H-1,2,3-triazol-1-yl)tetrahydro-2H-pyran-3-ol], the IC50 was found to be 180 nM in assay [1] and 40 nM in assay [2].

As to `CO[C@@H]1[C@@H](n2cc(-c3ccc(F)c(F)c3F)nn2)[C@@H](O)[C@@H](CO)O[C@@H]1Cc1cn(C2(C(F)(F)F)COC2)nn1` [Ex 3.1.58., (2R,3R,4S,5R,6R)-2-(hydroxymethyl)-5-methoxy-6-((1-(3-(trifluoromethyl)oxetan-3-yl)-1H-1,2,3-triazol-4-yl)methyl)-4-(4-(2,3,4-trifluorophenyl)-1H-1,2,3-triazol-1-yl)tetrahydro-2H-pyran-3-ol], the IC50 was found to be 200 nM in assay [1] and 40 nM in assay [2].

As for `CO[C@@H]1[C@@H](n2cc(-c3ccc(F)c(F)c3F)nn2)[C@@H](O)[C@@H](CO)O[C@@H]1Cc1cn(C23COC(C)(C2)C3)nn1` [Ex 3.1.59.], the half-maximal inhibitory concentration (IC50) in assay [1] turned out to be 520 nM; in assay [2], 40 nM.

On to `CO[C@@H]1[C@@H](n2cc(-c3ccc(F)c(F)c3F)nn2)[C@@H](O)[C@@H](CO)O[C@@H]1Cc1cn(C23CCOC(C)(C2)C3)nn1` [Ex 3.1.62.], for which the IC50 in assay [1] was found to be 810 nM; in assay [2], 60 nM.

In the case of `CO[C@@H]1[C@@H](n2cc(-c3ccc(F)c(F)c3F)nn2)[C@@H](O)[C@@H](CO)O[C@@H]1Cc1cn(C2CCC23CCC3)nn1` (stereo partly drawn) [Ex 3.1.82.], the IC50 in assay [1] amounted to 370 nM; in assay [2], 50 nM.

On to `CO[C@@H]1[C@@H](n2cc(-c3ccc(F)c(F)c3F)nn2)[C@@H](O)[C@@H](CO)O[C@@H]1Cn1cc(C2(CO)CC2)nn1` [Ex 3.2.4.], for which the figures for the IC50 in assay [1] and in assay [2] were 650 nM and 100 nM, respectively.

Take `CO[C@@H]1[C@@H](n2cc(-c3ccc(F)c(F)c3F)nn2)[C@@H](O)[C@@H](CO)O[C@@H]1Cn1cc(C2(C)COC2)nn1` [Ex 3.2.6.]: the results for the 50% inhibitory concentration (IC50) in assay [1] and in assay [2] were 580 nM and 70 nM, respectively.

Consider `CO[C@@H]1[C@@H](n2cc(-c3ccc(F)c(F)c3F)nn2)[C@@H](O)[C@@H](CO)O[C@@H]1Cn1cc(C23CC(C2)C3)nn1` [Ex 3.2.12.], for which the values for the IC50 in assay [1] and in assay [2] were 970 nM and 40 nM, respectively.
